# Tests used:
# B16 [1] = assay: Inhibition of alpha-MSH-induced melanin production in mouse B16 cells after 3 days; type: functional, cell-based; details: B16, 72 h
# B16 [2] = assay: Inhibition of alpha-MSH-induced melanin production in mouse B16 cells at 10 uM after 3 days; type: functional; details: B16, 72 h
IC50 (B16 [1]),Compound,inhibition at 10 µM (B16 [2])
2.6 µM,CC/C(=N\NC(N)=S)c1ccc(C)cc1,> 100%
1.9 µM,CCNC(=S)N/N=C(\CC)c1ccc(C)cc1,> 100%
0.79 µM,CC/C(=N\NC(=S)Nc1ccccc1)c1ccc(C)cc1,> 100%
> 30 µM,CC(NNC(N)=S)c1ccccc1 (centres undefined),36%
3.9 µM,CCC(NNC(N)=S)c1ccc(C)cc1 (centres undefined),> 100%
6.1 µM,C/C(=N\NC(N)=S)c1cccs1,82%
2.9 µM,CC/C(=N\N=C(\N)S)c1ccc(Cl)cc1,> 100%
4.9 µM,NC(=S)NN=C(c1ccccc1)c1ccccc1 [BENZOPHENONE-THIOSEMICARBAZONE],97%
2.3 µM,C/C(=N\N=C(/N)S)c1ccccc1 [PHENYL(METHYL)THIOSEMICARBAZONE],> 100%

# The remaining lines, values behind:
Compound,IC50 (B16 [1]),inhibition at 10 µM (B16 [2])
C/C(=N\NC(N)=S)c1ccc(C)cc1,0.84 µM,> 100%
CC(C)/C(=N\NC(N)=S)c1ccccc1,3.7 µM,96%
CC/C(=N\NC(=S)NC)c1ccc(C)cc1,2 µM,> 100%
Cc1ccc(C(C)NNC(N)=S)cc1 (centres undefined),8.1 µM,61%
NC(=S)N/N=C1\CCCc2ccccc21,2.3 µM,> 100%
COc1ccc(/C(C)=N/NC(N)=S)cc1,2.7 µM,> 100%
CC/C(=N\N=C(\N)S)c1ccc(Br)cc1,2 µM,> 100%
CC/C(=N\N=C(\N)S)c1ccc(OC)cc1,4 µM,> 100%

# Reference: ChEMBL document CHEMBL1777713, “Ketonethiosemicarbazones: structure-activity relationships for their melanogenesis inhibition” (Bioorg Med Chem Lett, 2011)
